# What was measured:
# Assay type in all cases: functional
# [1] = test system: Staphylococcus aureus; test: Antimicrobial activity against methicillin-susceptible, vancomycin-susceptible Staphylococcus aureus ATCC 29213 assessed as time required to induce post antibiotic sub-MIC effect at 0.3 times MIC after 1 hr by plate counting method; settings: ATCC 29213, 1 h
# [2] = test system: Enterococcus faecalis; test: Antimicrobial activity against vancomycin-sensitive Enterococcus faecalis 10 assessed as time required to induce sub-MIC effect at 0.2 times MIC after 1 hr by plate counting method; settings: Enterococcus faecalis, 10, 1 h
# [3] = test system: Streptococcus pneumoniae; test: Antimicrobial activity against Streptococcus pneumoniae ATCC 10813 infected in neutropenic ICR mouse assessed as post antibiotic effect at 1.56 to 100 mg/kg, sc administered 14 hrs post infection; settings: dose mg/kg 1.56-100; route subcutaneous
# [4] = test system: Enterococcus faecalis; test: Antimicrobial activity against vancomycin-resistant Enterococcus faecalis 266 assessed as time required to induce post antibiotic sub-MIC effect at 0.3 times MIC after 1 hr by plate counting method; settings: Enterococcus faecalis, 266, 1 h
# [5] = test system: Enterococcus faecalis; test: Antimicrobial activity against vancomycin-sensitive Enterococcus faecalis ATCC 29212 assessed as time required to induce sub-MIC effect at 0.4 times MIC after 1 hr by plate counting method; settings: ATCC 29212, 1 h
# [6] = test system: Streptococcus pneumoniae; test: Antimicrobial activity against Penicillin-, erythromycin-resistant Streptococcus pneumoniae 37 assessed as time required to induce sub-MIC effect at 0.3 times MIC after 1 hr by plate counting method; settings: Streptococcus pneumoniae, 37, 1 h
# [7] = test system: Staphylococcus aureus; test: Antimicrobial activity against methicillin-resistant, vancomycin-susceptible Staphylococcus aureus vs1 by microdilution method
# [8] = test system: Streptococcus pneumoniae; test: Antimicrobial activity against Penicillin-susceptible Streptococcus pneumoniae ATCC 49617 by microdilution method
# [9] = test system: Enterococcus faecalis; test: Antimicrobial activity against vancomycin-sensitive Enterococcus faecalis ATCC 29212 assessed as time required to induce post antibiotic sub-MIC effect at 0.3 times MIC after 1 hr by plate counting method; settings: ATCC 29212, 1 h
# [10] = test system: Enterococcus faecalis; test: Antimicrobial activity against vancomycin-sensitive Enterococcus faecalis ATCC 29212 assessed as time required to induce sub-MIC effect at 0.2 times MIC after 1 hr by plate counting method; settings: ATCC 29212, 1 h
# [11] = test system: Staphylococcus aureus; test: Antimicrobial activity against methicillin-resistant, vancomycin-hetroresistant Staphylococcus aureus 618 assessed as time required to induce post antibiotic sub-MIC effect at 0.3 times MIC after 1 hr by plate counting method; settings: Staphylococcus aureus, 618, 1 h
# [12] = test system: Streptococcus pneumoniae; test: Antimicrobial activity against Penicillin-susceptible Streptococcus pneumoniae ATCC 49617 assessed as time required to induce sub-MIC effect at 0.3 times MIC after 1 hr by plate counting method; settings: ATCC 49617, 1 h
# [13] = test system: Enterococcus faecalis; test: Antimicrobial activity against vancomycin-sensitive Enterococcus faecalis 10 assessed as time required to induce post antibiotic sub-MIC effect at 0.2 times MIC after 1 hr by plate counting method; settings: Enterococcus faecalis, 10, 1 h
# [14] = test system: Streptococcus pneumoniae; test: Antimicrobial activity against Penicillin-, erythromycin-resistant Streptococcus pneumoniae 37 assessed as time required to induce post antibiotic sub-MIC effect at 0.3 times MIC after 1 hr by plate counting method; settings: Streptococcus pneumoniae, 37, 1 h
# [15] = test system: Streptococcus pneumoniae; test: Antimicrobial activity against Penicillin-susceptible Streptococcus pneumoniae ATCC 49617 assessed as time required to induce sub-MIC effect at 0.4 times MIC after 1 hr by plate counting method; settings: ATCC 49617, 1 h
# [16] = test system: Streptococcus pneumoniae; test: Antimicrobial activity against Penicillin-, erythromycin-resistant Streptococcus pneumoniae 37 assessed as post antibiotic effect at 10 times MIC after 1 hr by plate counting method; settings: Streptococcus pneumoniae, 37, 1 h
# [17] = test system: Enterococcus faecalis; test: Antimicrobial activity against vancomycin-resistant Enterococcus faecalis 609 assessed as time required to induce sub-MIC effect at 0.4 times MIC after 1 hr by plate counting method; settings: Enterococcus faecalis, 609, 1 h
# [18] = test system: Staphylococcus aureus; test: Antimicrobial activity against methicillin-resistant, vancomycin-hetroresistant Staphylococcus aureus 618 assessed as time required to induce post antibiotic sub-MIC effect at 0.4 times MIC after 1 hr by plate counting method; settings: Staphylococcus aureus, 618, 1 h
# [19] = test system: Streptococcus pneumoniae; test: Antimicrobial activity against Penicillin-intermediate Streptococcus pneumoniae s1234 assessed as post antibiotic effect at 10 times MIC after 1 hr by plate counting method; settings: s1234, 1 h
# [20] = test system: Staphylococcus aureus; test: Antimicrobial activity against methicillin-resistant, vancomycin-resistant Staphylococcus aureus 770 by microdilution method
# [21] = test system: Enterococcus faecalis; test: Antimicrobial activity against vancomycin-sensitive Enterococcus faecalis 10 assessed as time required to induce sub-MIC effect at 0.4 times MIC after 1 hr by plate counting method; settings: Enterococcus faecalis, 10, 1 h
# [22] = test system: Staphylococcus aureus; test: Antimicrobial activity against methicillin-resistant, vancomycin-susceptible Staphylococcus aureus vs1 assessed as time required to induce post antibiotic sub-MIC effect at 0.3 times MIC after 1 hr by plate counting method; settings: vs1, 1 h
# [23] = test system: Enterococcus faecalis; test: Antimicrobial activity against vancomycin-resistant Enterococcus faecalis 609 assessed as time required to induce sub-MIC effect at 0.2 times MIC after 1 hr by plate counting method; settings: Enterococcus faecalis, 609, 1 h
# [24] = test system: Staphylococcus aureus; test: Antimicrobial activity against Staphylococcus aureus ATCC 29213 infected in neutropenic ICR mouse assessed as post antibiotic effect at 1.56 to 100 mg/kg, sc administered 14 hrs post infection; settings: dose mg/kg 1.56-100; route subcutaneous
# [25] = test system: Streptococcus pneumoniae; test: Antimicrobial activity against Penicillin-susceptible Streptococcus pneumoniae s502 assessed as time required to induce sub-MIC effect at 0.2 times MIC after 1 hr by plate counting method
# [26] = test system: Staphylococcus aureus; test: Antimicrobial activity against methicillin-resistant, vancomycin-susceptible Staphylococcus aureus vs1 assessed as time required to induce sub-MIC effect at 0.4 times MIC after 1 hr by plate counting method; settings: vs1, 1 h
# [27] = test system: Staphylococcus aureus; test: Antimicrobial activity against methicillin-resistant, vancomycin-resistant Staphylococcus aureus 770 assessed as time required to induce sub-MIC effect at 0.3 times MIC after 1 hr by plate counting method; settings: Staphylococcus aureus, 770, 1 h
# [28] = test system: Staphylococcus aureus; test: Antimicrobial activity against methicillin-resistant, vancomycin-intermediate Staphylococcus aureus 510 assessed as time required to induce sub-MIC effect at 0.4 times MIC after 1 hr by plate counting method; settings: Staphylococcus aureus, 510, 1 h
# [29] = test system: Streptococcus pneumoniae; test: Antimicrobial activity against Penicillin-, erythromycin-resistant Streptococcus pneumoniae 37 assessed as time required to induce sub-MIC effect at 0.2 times MIC after 1 hr by plate counting method; settings: Streptococcus pneumoniae, 37, 1 h
# [30] = test system: Streptococcus pneumoniae; test: Antimicrobial activity against Penicillin-, erythromycin-resistant Streptococcus pneumoniae 37 assessed as time required to induce post antibiotic sub-MIC effect at 0.2 times MIC after 1 hr by plate counting method; settings: Streptococcus pneumoniae, 37, 1 h
# [31] = test system: Streptococcus pneumoniae; test: Antimicrobial activity against Penicillin-susceptible Streptococcus pneumoniae s502 assessed as time required to induce sub-MIC effect at 0.4 times MIC after 1 hr by plate counting method; settings: s502, 1 h
# [32] = test system: Staphylococcus aureus; test: Antimicrobial activity against methicillin-susceptible, vancomycin-susceptible Staphylococcus aureus sox1 assessed as time required to induce post antibiotic sub-MIC effect at 0.3 times MIC after 1 hr by plate counting method; settings: sox1, 1 h
# [33] = test system: Enterococcus faecalis; test: Antimicrobial activity against vancomycin-sensitive Enterococcus faecalis 10 assessed as time required to induce post antibiotic sub-MIC effect at 0.3 times MIC after 1 hr by plate counting method; settings: Enterococcus faecalis, 10, 1 h
# [34] = test system: Streptococcus pneumoniae; test: Antimicrobial activity against Penicillin-susceptible Streptococcus pneumoniae s502 assessed as time required to induce post antibiotic sub-MIC effect at 0.4 times MIC after 1 hr by plate counting method; settings: s502, 1 h
smiles,measurement,setting,value
CCO/N=C(\C(=O)N[C@@H]1C(=O)N2C(C(=O)[O-])=C(Sc3nc(-c4cc[n+](C)cc4)cs3)CS[C@H]12)c1nsc(NP(=O)(O)O)n1 [CEFTAROLINE FOSAMIL],PAE,[1],4.5 h
same,PAE,[2],0.8 h
same,PAE,[3],1.5 h
same,time,[4],> 10.3 h
same,PAE,[5],10 h
same,time,[6],0.5 h
same,MIC,[7],0.5 µg/mL
same,MIC,[8],0.016 µg/mL
same,PAE,[9],> 10.6 h
same,PAE,[10],3.1 h
same,time,[11],2.7 h
same,PAE,[12],0.7 h
same,PAE,[13],3.2 h
same,time,[14],3 h
same,PAE,[15],0.8 h
same,PAE,[16],1.5 h
same,time,[17],2.2 h
same,time,[18],2.9 h
same,PAE,[19],0.7 h
same,MIC,[20],1 µg/mL
same,time,[21],1.8 h
same,time,[22],4.7 h
same,time,[23],1.4 h
same,PAE,[24],0.8 h
same,PAE,[25],0 h
same,time,[26],1.2 h
same,time,[27],0.5 h
same,time,[28],1.3 h
same,time,[29],0.5 h
same,time,[30],1.9 h
same,PAE,[31],2.5 h
same,PAE,[32],3.6 h
same,PAE,[33],6.6 h
same,PAE,[34],4.5 h
